Assay results from patent US20260125374A1, “PI3K-ALPHA INHIBITORS AND METHODS OF MAKING AND USING THE SAME” (Relay Therapeutics, Inc., priority 2021, published 2026).
Marks after values point to notes of the source that are not given here.

Assays:
[1] = Stability of the process (III-1 in solution); format: physicochemical
[2] = Stability of III-1 & I-1 solid; format: physicochemical; conditions: after 38 days; initial 99.0%
[3] = Polymorph screening (equilibration, anti-solvent, slow evaporation, slow cooling, temperature cycling, heating-cooling; XRPD and SFC); format: physicochemical
Method: This polymorph screening program of compound I-1 free form was performed with two batches of the pure enantiomer. Both batches are crystalline and is assigned as Form A. The polymorphic behaviors of the enantiomer were investigated by equilibration at 25° C. and 50° C., equilibration under a temperature cycle, crystallization from hot saturated solutions by slow cooling, slow evaporation, precipitation by addition of anti-solvent, and DSC heating-cooling cycle experiments. Relative stability of identified polymorphs was investigated by competitive slurry experiments.
(§1) About 50 mg of I-1 Form A was weighed into a 2 mL glass vial and equilibrated in suitable amount of solvents (pretreated by molecular sieves) at 25° C. for 2 weeks with a stirring plate and with protection from light. Obtained suspensions were filtered with 0.45 μm nylon membrane and the solid parts (wet cake) were investigated by XRPD. When differences were observed, additional investigations were performed (e.g. DSC, TGA, ^1H-NMR, SFC).
as §1, with “into” for “into a”, “vials” for “vial”, “50°” for “25°”, “10 days” for “2 weeks”, “investigation was” for “investigations were”
I-1 Form A was dissolved in a good solvent. […] The solvents used were pretreated by molecular sieve. Precipitates were collected by filtration. The solid part (wet cake) was investigated by XRPD. […] When differences were observed, additional investigations were performed (e.g. DSC, TGA, ^1H-NMR, SFC).
Based on approximate solubility results, I-1 Form A was dissolved in suitable amount of solvents (pretreated by molecular sieves). Obtained solutions were filtered by 0.45 μm nylon filter. […] Solid residues were examined for their polymorphic form. When differences were observed, additional investigations were performed (e.g. DSC, TGA, ^1H-NMR, SFC).
Approximate 50 mg of batch I-1 Form A were dissolved in the minimal amount of selected solvents (without pretreatment by molecular sieves) at 50° C. Obtained solutions were filtered by 0.45 μm nylon filter. […] Precipitates were collected by filtration. The solid parts (wet cake) were investigated by XRPD. When differences were observed, additional investigations were performed (e.g. DSC, TGA, ^1H-NMR, SFC). When no precipitation was obtained or only a few solids were obtained, the solutions were placed at 5° C. for crystallization.
About 50 mg of I-1 Form A was equilibrated in different solvents (pretreated by molecular sieves) under a temperature cycle between 5° C. to 50° C. at a heating/cooling rate of 0.2° C./min for 10 cycles and with protection from light. After 10 cycles, precipitates were collected at 5° C. by filtration. The solid parts (wet cake) were investigated by XRPD. When differences were observed, additional investigations were performed (e.g. DSC, TGA, 1H-NMR, SFC).
Polymorphic behavior of I-1 Form A was investigated by two different heating-cooling cycles of DSC. Cycle 1:30° C. to 280° C. at 10° C./min; 280° C. to −20° C. at 20° C./min; reheat to 300° C. at 10° C./min. Cycle 2:30° C. to 280° C. at 10° C./min; 280° C. to-20° C. at 2° C./min; reheat to 300° C. at 10° C./min.

[4] = Solubility in DCM/Methanol mixtures; format: physicochemical
Method: The solubility was evaluated on various ratio of DCM and Methanol mixtures.

[5] = tested on: PIK3CA-mediated AKT phosphorylation in MCF10A cells overexpressing hotspot PIK3CA mutations (H1047R, E542K, E545K); assay: MCF10A Cell-Based PIK3CA Kinase Assay (CisBio Phospho-AKT (Ser473) HTRF assay); conditions: Homo sapiens, MCF-10A, 2 hours compound incubation, read-out: Cell - PD - MCF10A H1047R/−−2483 (IC50)
Method: Selected compounds of the present disclosure were tested in a MCF10A Cell-Based PIK3CA Kinase Assay, namely the CisBio Phospho-AKT (Ser473) HTRF assay, to measure the degree of PIK3CA-mediated AKT phosphorylation. MCF10A cells (immortalized non-transformed breast cell line) overexpressing hotspot PIK3CA mutations (including H1047R, E542K, and E545K mutations) were used. Cells were seeded at 5,000 cells per well in DMEM/F12 (Thermo Fisher Scientific) supplemented with […], 100 ng/ml Cholera Toxin, 10 μg/mL insulin, and 0.5% horse serum. Once plated, cells were placed in a 5% CO2, 37° C. incubator to adhere overnight.
The following day, compounds were added to the cell plates in 12 doses of 1:3 serial dilutions. The dose response curves were run in duplicate. Compound addition was carried out utilizing an Echo 55 Liquid Handler acoustic dispenser (Labcyte). The cell plates were incubated for 2 hours in a 5% CO2, 37° C. incubator. Following compound incubation, the cells were lysed for 60 min at room temperature. Finally, a 4-hour incubation with the HTRF antibodies was performed at room temperature. All reagents, both lysis buffer and antibodies, were used from the CisBio pAKT S473 HTRF assay kit, as per the manufacturers protocol. Plates were read on an Envision 2105 (Perkin Elmer), and the IC50 values were calculated using Genedata software.

[6] = Before stirring, 3 g product in solution
[7] = dissolved in DCM/MeOH/DMF, concentrated to 3V, 16 h, 40° C.
[8] = dissolved in MeOH, 34 h, 50° C.
[9] = dissolved in MeOH, 42 h, 50° C.
[10] = dissolved in MeOH, 60 h, 50° C.
[11] = dissolved in MeOH, stirred 18 h, 34° C.

## N#Cc1c(-c2cc(NC(=O)c3cc(F)cc(C(F)(F)F)c3)c3c(c2)C(=O)NC3c2cc(F)ccc2Cl)ccc2ncnn12 (racemic) [III-1, N-(3-(2-chloro-5-fluorophenyl)-6-(5-cyano-[1,2,4]triazolo[1,5-a]pyridin-6-yl)-1-oxoisoindolin-4-yl)-3-fluoro-5-(trifluoromethyl)benzamide]
[1]; [6]
  HPLC/RRT Purity, RRT 1.00 (purity of III-1): 96.23%
  HPLC/RRT Purity, impurity at RRT 0.41: 0.10%
  HPLC/RRT Purity, impurity at RRT 0.94: 0.62%
  HPLC/RRT Purity, impurity at RRT 1.37: 1.98%
  HPLC/RRT Purity, impurity at RRT 1.38: 0.31%
[1]; DCM/MeOH/DMF concentrated to 3V, 17 h at 40° C.
  impurity @RRT 1.26 generated: 0.15%
[1]; MeOH, over 18 h at 34° C.
  impurity @RRT 0.74 generated: 0.15%
  purity after stirring in MeOH: 96.0%
[1]; MeOH, over 60 h at 50° C.
  impurity @RRT 0.74: 3.44%
[1]; concentrated to 3V under 40° C., stirred for 17 h at 40° C.
  purity after stirring in DCM/MeOH/DMF: 94.57%
[1]; [7]
  HPLC/RRT Purity, RRT 1.00 (purity of III-1): 94.57%
  HPLC/RRT Purity, impurity at RRT 0.41: 0.11%
  HPLC/RRT Purity, impurity at RRT 0.74: 0.03%
  HPLC/RRT Purity, impurity at RRT 0.94: 0.68%
  HPLC/RRT Purity, impurity at RRT 1.26: 0.33%
  HPLC/RRT Purity, impurity at RRT 1.37: 2.51%
  HPLC/RRT Purity, impurity at RRT 1.38: 0.46%
[1]; [8]
  HPLC/RRT Purity, RRT 1.00 (purity of III-1): 93.53%
  HPLC/RRT Purity, impurity at RRT 0.41: 0.15%
  HPLC/RRT Purity, impurity at RRT 0.74: 2.49%
  HPLC/RRT Purity, impurity at RRT 0.94: 0.67%
  HPLC/RRT Purity, impurity at RRT 0.96: 0.20%
  HPLC/RRT Purity, impurity at RRT 1.26: 0.19%
  HPLC/RRT Purity, impurity at RRT 1.37: 2.13%
  HPLC/RRT Purity, impurity at RRT 1.38: 0.26%
[1]; [9]
  HPLC/RRT Purity, RRT 1.00 (purity of III-1): 92.67%
  HPLC/RRT Purity, impurity at RRT 0.41: 0.17%
  HPLC/RRT Purity, impurity at RRT 0.74: 2.98%
  HPLC/RRT Purity, impurity at RRT 0.94: 0.67%
  HPLC/RRT Purity, impurity at RRT 0.96: 0.25%
  HPLC/RRT Purity, impurity at RRT 1.26: 0.38%
  HPLC/RRT Purity, impurity at RRT 1.37: 2.15%
  HPLC/RRT Purity, impurity at RRT 1.38: 0.20%
[1]; [10]
  HPLC/RRT Purity, RRT 1.00 (purity of III-1): 91.45%
  HPLC/RRT Purity, impurity at RRT 0.41: 0.19%
  HPLC/RRT Purity, impurity at RRT 0.74: 3.45%
  HPLC/RRT Purity, impurity at RRT 0.94: 0.67%
  HPLC/RRT Purity, impurity at RRT 0.96: 0.40%
  HPLC/RRT Purity, impurity at RRT 1.26: 0.58%
  HPLC/RRT Purity, impurity at RRT 1.37: 2.26%
  HPLC/RRT Purity, impurity at RRT 1.38: 0.23%
[1]; [11]
  HPLC/RRT Purity, RRT 1.00 (purity of III-1): 95.98%
  HPLC/RRT Purity, impurity at RRT 0.41: 0.10%
  HPLC/RRT Purity, impurity at RRT 0.74: 0.15%
  HPLC/RRT Purity, impurity at RRT 0.94: 0.59%
  HPLC/RRT Purity, impurity at RRT 1.37: 2.33%
  HPLC/RRT Purity, impurity at RRT 1.38: 0.29%
[2]
  purity of solid after storage: 99.1%
[3]; anti-solvent precipitation: MeOH / MTBE(4V), stirred at 25° C. for 23 days, SFC immediately after preparation
  ee %(SFC): ee % (SFC): 2.7%*
[3]; equilibration at 50° C. for 10 days in ACN/water(80:20, v/v), SFC immediately after preparation
  ee %(SFC): ee % (SFC): 50.7%*.
[3]; equilibration at 50° C. for 10 days in Acetone/water(60:40, v/v), SFC immediately after preparation
  ee %(SFC): ee % (SFC): 56.9%*
[3]; equilibration at 50° C. for 10 days in EtOH/water(50:50, v/v), SFC after preparation for about 12 h
  ee %(SFC): ee % (SFC): 75.0%#;
[3]; equilibration at 50° C. for 10 days in EtOH/water(50:50, v/v), SFC immediately after preparation
  ee %(SFC): ee % (SFC): 76.9%*,
[3]; equilibration at 50° C. for 10 days in Methanol, SFC immediately after preparation
  ee %(SFC): ee % (SFC): 48.4%*
[3]; slow evaporation from MeOH, SFC immediately after preparation
  ee %(SFC): ee % (SFC): 68.6%*
[3]; solid from crystallization from DMF/Acetone water, SFC immediately after preparation
  ee %(SFC): ee % (SFC): −0.3%*
[4]
  solubility in DCM/MeOH=90:10 mixture: limited solubility

## [2H][C@@]1(c2cc(F)ccc2Cl)NC(=O)c2cc(-c3ccc4ncnn4c3C#N)cc(NC(=O)c3cc(F)cc(C(F)(F)F)c3)c21 [IV-2]
[5]
  IC50: ≤ 1000 nM
